Measured values as given in PubChem BioAssay (NCI).
“And” between values parts separate entries of the source, which are not always exact repeats. Equal entries are not always repeated.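 Method: 48-hour compound exposure of cells in 96-well plates, five concentrations, linear interpolation of endpoints. GI50 marks 50% less growth. TGI: total growth inhibition.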

Tests used:
Test in all cases: NCI-60 cell line screen, 48 h
CAKI-1 renal = tested on: CAKI-1 renal
DU-145 prostate = tested on: DU-145 prostate
HCT-15 colon = tested on: HCT-15 colon
HT29 colon = tested on: HT29 colon
NCI-H23 lung = tested on: NCI-H23 lung
OVCAR-4 ovarian = tested on: OVCAR-4 ovarian
RXF 393 renal = tested on: RXF 393 renal
SF-268 CNS = tested on: SF-268 CNS
TK-10 renal = tested on: TK-10 renal
UACC-62 melanoma = tested on: UACC-62 melanoma

| Compound | GI50 (CAKI-1 renal) | TGI (CAKI-1 renal) | GI50 (DU-145 prostate) | TGI (DU-145 prostate) | GI50 (HCT-15 colon) | TGI (HCT-15 colon) | GI50 (HT29 colon) | TGI (HT29 colon) | GI50 (NCI-H23 lung) | TGI (NCI-H23 lung) | GI50 (OVCAR-4 ovarian) | TGI (OVCAR-4 ovarian) | GI50 (RXF 393 renal) | TGI (RXF 393 renal) | GI50 (SF-268 CNS) | TGI (SF-268 CNS) | GI50 (TK-10 renal) | TGI (TK-10 renal) | GI50 (UACC-62 melanoma) | TGI (UACC-62 melanoma) |
| --- | --- | --- | --- | --- | --- | --- | --- | --- | --- | --- | --- | --- | --- | --- | --- | --- | --- | --- | --- | --- |
| CCCCN(CCCC)c1ccc(C(=N)c2ccc(N(C)C)cc2)cc1 | 0.356 µM | 1.49 µM | 1.03 µM | 2.23 µM | 0.665 µM | 2.2 µM | 0.292 µM | 1.08 µM | 0.278 µM | 0.981 µM | 0.375 µM | 1.46 µM | 1.25 µM | 2.61 µM | 1.3 µM | 2.73 µM | 0.643 µM | 1.84 µM | 0.449 µM | 1.77 µM |
| CC(N=C(N)N)C(=O)O (configuration not stated) |  | > 100 µM |  | > 100 µM |  | > 100 µM |  | > 100 µM |  | > 100 µM |  | > 100 µM |  | > 100 µM |  | > 100 µM |  | > 100 µM |  | > 100 µM |
| CN1CCN(CCCOc2cccc3nc(Nc4ccc(Cl)c(F)c4)ccc23)CC1 | 2.53 µM | 8.47 µM | 1.75 µM | 3.19 µM | 1.4 µM | 2.79 µM | 1.41 µM | 2.8 µM | 1.75 µM | 3.43 µM | 3.13 µM | 12.4 µM | 1.96 µM | 4.04 µM | 1.72 µM | 3.46 µM | 1.81 µM | 3.28 µM | 2.05 µM | 4.1 µM |
| O=C(/C=C/c1ccccc1)c1c[nH]c2ccccc2c1=O | 1.97 µM | 6.22 µM | 1.57 µM | 6.34 µM | 2.08 µM | 13.2 µM | 3.15 µM | 10.6 µM | 3.17 µM | 15.2 µM | 4.88 µM | 23.5 µM | 3.05 µM | 11.5 µM | 2.81 µM | 10.3 µM | 2.08 µM | 5.37 µM | 5.09 µM | 18.2 µM |
| COc1cc(/C=N/Nc2ncnc3c2cnn3C(C)C)ccc1O | 6.43 µM | > 25 µM | 8.03 µM | > 25 µM | 11 µM | > 25 µM | 8.18 µM | > 25 µM | 6.05 µM | > 25 µM | 14.4 µM | > 25 µM | 4.66 µM | 12.7 µM | 7.68 µM | > 22.8 µM | 8.3 µM | 21.3 µM | 6.98 µM | > 20.9 µM |
| Cc1cc2cccnc2c2ncccc12 | 0.244 µM | 0.758 µM | 1.02 µM | > 100 µM | 0.436 µM | 21.3 µM | 1.69 µM | 16 µM | 3.11 µM | 87.6 µM | 0.418 µM | 14.8 µM | 1.89 µM | 6.77 µM | 0.739 µM | 27.7 µM | 0.713 µM | 23.9 µM | 1.28 µM | 9.19 µM |
| CC1=CC[C@@H]2C(C)(C)C(=O)CC[C@@]2(C)[C@@H]1COc1ccc2ccc(=O)oc2c1 | 9.5 µM | 80.8 µM | 23.6 µM | 93.6 µM | 13.4 µM | 56.4 µM | 23.8 µM | > 100 µM | 15.3 µM | 61.2 µM | 5.53 µM | 44.8 µM | 62 µM | > 100 µM | 23.3 µM | > 100 µM | 45.3 µM | > 100 µM | 5.22 µM | 23.5 µM |
| C=CCn1c(=O)c2cnc(Nc3ccc(N4CCN(C)CC4)cc3)nc2n1-c1ccc2c(n1)[C@@](O)(CC)CC2 | 0.113 µM | 20.5 µM | 0.939 µM | 35.3 µM | 0.949 µM | 13.8 µM | 0.261 µM | 4.49 µM | 0.25 µM | 1.42 µM | 1.89 µM | > 39.9 µM | 0.131 µM | 0.686 µM | 2.07 µM | > 63.5 µM | 1.41 µM | 49.2 µM | 0.504 µM | 16.4 µM |
| O=C1c2ccccc2NC(c2cc(Cl)cc(Cl)c2O)N1CCc1ccccn1 (configuration not stated) |  | > 100 µM |  | > 100 µM |  | > 100 µM |  | > 100 µM |  | > 100 µM |  | 98.9 µM |  | > 100 µM |  | > 100 µM |  | > 100 µM |  | > 100 µM |
| COC(=O)CCC(C)[C@H]1CCC2C3C(C[C@H](OC(C)=O)[C@@]21C)[C@@]1(C)CCC2(C[C@H]1C[C@H]3OC(C)=O)OOC1(CCC(C)CC1)OO2 (some centres not stated) | 5.26 µM and 15.8 µM | > 100 µM | > 100 µM and 27.8 µM | > 100 µM | 8.89 µM and 30.9 µM | > 100 µM |  | > 100 µM | 7.74 µM and 15.6 µM | > 100 µM | 3.75 µM and 18.2 µM | 49.5 µM and > 100 µM |  | > 100 µM | 8.26 µM and 32.8 µM | > 100 µM | 10.8 µM and > 100 µM | > 100 µM |  | > 100 µM |
| O=C(COc1ccc(/C=C2\Oc3ccccc3C2=O)cc1)Nc1nccs1 | 12.1 µM | > 100 µM | 71 µM | > 100 µM | > 100 µM | > 100 µM | > 100 µM | > 100 µM | 49.8 µM | > 100 µM | 70.4 µM | > 100 µM | 0.354 µM | 15.1 µM | 36.8 µM | > 100 µM | 85.1 µM | > 100 µM | > 100 µM | > 100 µM |
| Cc1onc(-c2c(F)cccc2Cl)c1-c1ncc(-c2ccc(Cl)cc2)o1 | 4.7 µM | > 100 µM | 14.6 µM | > 100 µM | 2.89 µM | > 100 µM | 3.89 µM | > 100 µM | 5.04 µM | > 100 µM | 13.9 µM | > 100 µM | 6.45 µM | 90.7 µM | 7.3 µM | > 100 µM | 8.33 µM | > 100 µM | 2.7 µM | > 100 µM |
| Oc1c(C(Nc2cccc3ccccc23)c2ccccc2)ccc2cccnc12 (configuration not stated) | 2.15 µM | 6.54 µM | 7.22 µM | > 100 µM | 3.78 µM | 62.1 µM | 5.57 µM | > 100 µM | 4.04 µM | 27.5 µM | 2.3 µM | > 100 µM | 3.12 µM | 19.1 µM | 3.04 µM | 28.7 µM | 11 µM | 45.8 µM | 2.82 µM | 39.6 µM |
| Cc1cc(Cc2cc(C)c(O)c(C)c2)cc(C)c1O | 3.74 µM | 21.6 µM | 14.6 µM | > 100 µM | 3.49 µM | > 100 µM | 8.87 µM | 33.8 µM | 11.3 µM | 74 µM | 29 µM | > 100 µM | 6.47 µM | 36.4 µM | 7.85 µM | 86.2 µM | 11.2 µM | 56.8 µM | 5.41 µM | 62.6 µM |
